Assays:
T-47D [1] = experiment: Caspase cascade activation (Ac-DEVD-R110 fluorogenic substrate) in T-47D cells; assay type: cell-based, Human; details: 24 h incubation
Procedure: (§1) Human breast cancer cell lines T-47D and ZR-75-1 were grown according to media component mixtures designated by American Type Culture Collection +10% FCS (Invitrogen Corporation), in a 5% CO2-95% humidity incubator at 37° C. T-47D and ZR-75-1 cells were maintained at a cell density between 30 and 80% confluency and for HL-60 at a cell density of 0.1 to 0.6×10^6 cells/mL. Cells were harvested at 600×g and resuspended at 0.65×10^6 cells/mL into appropriate media +10% FCS. An aliquot of 45 μL of cells was added to a well of a 96-well microtiter plate containing 5 μL of a 10% DMSO in RPMI-1640 media solution containing 1.6 to 100 μM of N,N′-bis-(3-trifluoromethyl-phenyl)-2-(4-isopropyl-benzylidene)-malonamide or other test compound (0.16 to 10 μM final). An aliquot of 45 μL of cells was added to a well of a 96-well microtiter plate containing 5 μL of a 10% DMSO in RPMI-1640 media solution without test compound as the control sample. The samples were mixed by agitation and then incubated at 37° C. for 24 h in a 5% CO2-95% humidity incubator. After incubation, the samples were removed from the incubator and […] of a solution containing 20 μM of N-(Ac-DEVD)-N′-ethoxycarbonyl-R110 fluorogenic substrate (SEQ ID NO:1) (Cytovia, Inc.; U.S. Pat. No. 6,335,429), 20% sucrose (Sigma), 20 mM DTT (Sigma), 200 mM NaCl (Sigma), 40 mM Na PIPES buffer pH 7.2 (Sigma), and 500 μg/mL lysolecithin (Calbiochem) was added. The samples were mixed by agitation and incubated at room temperature. Using a fluorescent plate reader (Model 1420 Wallac Instruments), an initial reading (T=0) was made approximately 1-2 min after addition of the substrate solution, employing excitation at 485 nm and emission at 530 nm, to determine the background fluorescence of the control sample. After approximately 3 h of incubation, the samples were read for fluorescence as above (T=3 h).
(§2) The relative Fluorescence Unit values (RFU) were used to calculate the sample readings as follows: RFU(T=3h)−Control RFU(T=0)=Net RFU(T=3h)
(§3) The activity of caspase cascade activation was determined by the ratio of the net RFU value for N,N′-bis-(3-trifluoromethyl-phenyl)-2-(4-isopropyl-benzylidene)-malonamide to that of control samples. The EC50 (nM) was determined by a sigmoidal dose-response calculation (Prism 2.0, GraphPad Software Inc.).

ZR-75-1 = experiment: Caspase cascade activation (Ac-DEVD-R110 fluorogenic substrate) in ZR-75-1 cells; assay type: cell-based, Human; details: 24 h incubation
Procedure: as §1, §2, §3

T-47D [2] = experiment: Inhibition of cell proliferation (GI50, CellTiter 96 AQueous One) in T-47D cells; assay type: cell-based; details: Homo sapiens, T47D, 48 h incubation, read-out: GI50 (dose for 50% inhibition of cell proliferation)
Procedure: (§4) T-47D and DLD-1 cells were grown and harvested as in Example 105. An aliquot of 90 μL of cells (2.2×10^4 cells/mL) was added to a well of a 96-well microtiter plate containing 10 μl of a 10% DMSO in RPMI-1640 media solution containing 1 nM to 100 μM of N,N′-bis-(3-trifluoromethyl-phenyl)-2-(4-isopropyl-benzylidene)-malonamide (0.1 nM to 10 μM final). An aliquot of 90 μL of cells was added to a well of a 96-well microtiter plate containing 10 μL of a 10% DMSO in RPMI-1640 media solution without compound as the control sample for maximal cell proliferation (AMax). The samples were mixed by agitation and then incubated at 37° C. for 48 h in a 5% CO2-95% humidity incubator. After incubation, the samples were removed from the incubator and 20 μL of CellTiter 96 AQUEOUS One Solution Cell Proliferation™ reagent (Promega) was added. The samples were mixed by agitation and incubated at 37° C. for 2-4 h in a 5% CO2-95% humidity incubator. Using an absorbance plate reader (Model 1420 Wallac Instruments), an initial reading (T=0) was made approximately 1-2 min after addition of the solution, employing absorbance at 490 nm. This determines the possible background absorbance of the test compounds. No absorbance for N,N′-bis-(3-trifluoromethyl-phenyl)-2-(4-isopropyl-benzylidene)-malonamide was found at 490 nm. After the 2-4 h incubation, the samples were read for absorbance as above (ATest).
(§5) Baseline for GI50 (dose for 50% inhibition of cell proliferation) of initial cell numbers were determined by adding an aliquot of 90 μL of cells or 90 μL of media, respectively, to wells of a 96-well microtiter plate containing 10 μL of a 10% DMSO in RPMI-1640 media solution. The samples were mixed by agitation and then incubated at 37° C. for 0.5 h in a 5% CO2-95% humidity incubator. After incubation, the samples were removed from the incubator and 20 μL of CellTiter 96 AQUEOUS One Solution Cell Proliferation™ reagent (Promega) was added. The samples were mixed by agitation and incubated at 37° C. for 2-4 h in a 5% CO2-95% humidity incubator. Absorbance was read as above, (AStart) defining absorbance for initial cell number used as baseline in GI50 determinations.
(§6) GI50 (dose for 50% inhibition of cell proliferation) is the concentration where [(ATest−AStart)/(AMax−AStart)]=0.5.

DLD-1 = experiment: Inhibition of cell proliferation (GI50, CellTiter 96 AQueous One) in DLD-1 cells; assay type: cell-based; details: Homo sapiens, 48 h incubation, read-out: GI50 (dose for 50% inhibition of cell proliferation)
Procedure: as §4, §5, §6

Jurkat cells = experiment: Drug induced apoptosis in Jurkat cells (propidium iodide flow cytometry); assay type: cell-based; details: 24 h
Procedure: FIGS. 1A-C are graphs showing drug induced apoptosis in Jurkat cells. FIG. 1A: control cells (DMSO treated) showing most of the cells in G1 (M2). FIG. 1B: cells treated with 0.5 μM of N,N′-bis-(3-trifluoromethyl-phenyl)-2-(4-isopropyl-benzylidene)-malonamide for 24 h showing 50% of the cells in M1 (subdiploid apoptotic cells). FIG. 1C: cells treated with 1 μM of N,N′-bis-(3-trifluoromethyl-phenyl)-2-(4-isopropyl-benzylidene)-malonamide for 24 h showing 77% of the cells in M1 (subdiploid apoptotic cells).
(§7) Jurkat cells were incubated with N,N′-bis-(3-trifluoromethyl-phenyl)-2-(4-isopropyl-benzylidene)-malonamide (0.5 μM and 1 μM) for 24 h under normal growth conditions; control cultures were treated with DMSO vehicle. Cells were harvested at 1200 rpm and washed twice with 5 mM EDTA/PBS. Cells were then resuspended in 300 μl EDTA/PBS and […] of 100% ethanol, vortexed and incubated at room temperature for 1 h. Samples were spun down at 12000 rpm for 5 min and the supernatant was removed. A solution containing 100 μg/ml of propidium iodide and 1 mg/ml of RNAse A (fresh) was added to the samples and incubated for 1 h at room temperature. Samples were then transferred to 12×75 mm polystyrene tubes and analysed on a flow cytometer. All flow cytometry analyses were performed on FACScalibur (Becton Dickinson) using Cell Quest analysis software.

T47D cells = experiment: Drug induced apoptosis in T47D cells (propidium iodide flow cytometry); assay type: cell-based, Human; details: 1.7 μM, 24 h
Procedure: FIGS. 2A-B are graphs showing drug induced apoptosis in T47D cells. FIG. 2A: control cells (DMSO treated) showing most of the cells in G1 (M2). FIG. 2B: cells treated with 1.7 μM of N,N′-bis-(3-trifluoromethyl-phenyl)-2-(4-isopropyl-benzylidene)-malonamide for 24 h showing 88% of the cells in M1 (subdiploid apoptotic cells).
as §7
T47D breast cancer cell line was maintained and harvested as described in Example 105. […] Cells were harvested and treated with propidium iodide and analysed on a flow cytometer as described in Example 107.

[3] = ratio of net RFU to that of control samples

EC50 (T-47D [1]; Homo sapiens, T47D, 0.16 to 10 μM final, read-out: Caspase potency EC50): 0.867 µM
EC50 (ZR-75-1; Homo sapiens, 0.16 to 10 μM final, read-out: Caspase potency EC50): 1.4 µM
GI50 (T-47D [2]): 0.18 µM
GI50 (DLD-1): 0.2 µM
SMILES: CC(C)c1ccc(C=C(C(=O)Nc2cccc(C(F)(F)F)c2)C(=O)Nc2cccc(C(F)(F)F)c2)cc1 [Example 3, N,N′-Bis-(3-trifluoromethyl-phenyl)-2-(4-isopropyl-benzylidene)-malonamide]
Caspase Activity Ratio (T-47D [1]; [3]): 15
Caspase Activity Ratio (ZR-75-1; [3]): 17
induction of apoptosis (in words) (Jurkat cells; 0.5 μM and 1 μM): induces massive apoptosis
cells in M1 (subdiploid apoptotic cells) (Jurkat cells; 0.5 μM): 50%
cells in M1 (subdiploid apoptotic cells) (Jurkat cells; 1 μM): 77%
cells in M1 (subdiploid apoptotic cells) (T47D cells): 88%
induction of apoptosis (in words) (T47D cells): induces massive apoptosis
